Columns and labels:
[1] = Mouse single dose pharmacokinetics; assay type: in vivo; conditions: plasma, iv, 0.5 mg/kg, male C57BL/6 mice; for Vd: read-out: Vss
Protocol: Male C57BL/6 mice (18-25 g, 6-8 weeks old) were obtained from Zhejiang Vital River Laboratory Animal Technology Co., Ltd. All animals for IV administration had free access to food and water. The IV dosing was performed through tail vein. The IV dose solution for the Test Articles was prepared in 10% DMA/20% PG/70% HPOCD solution (40% w/v aqueous HPOCD) at a concentration of 0.1 mg/mL. The oral dosing suspension was prepared by suspending Test Article in 0.5% HPMC/0.1% Tween 80 in water at a concentration 0.2 mg/mL. Concentrations of IV and PO doses were measured at the end of the study. Pharmacokinetic (PK) parameters were calculated using the nominal dose values if the measured values were within 20% of the nominal values. A group of 15 mice received the IV dose where the volume was 5 mL/kg. Another group of 15 mice received by oral gavage of Test Article at 1 mg/kg. The oral dose volume was 5 mL/kg. Sparse blood samples were collected from groups of three mice via retro-orbital bleeding, placed into a K2EDTA microtainer tube and maintained on ice until centrifugation to obtain plasma. Each designated group of mice were bled at two-time points. The time points were predose (PO only), 5 (IV only), 15, 30 minutes, 1, 2, 4, 6, 8 and 24 hours postdose. Blood samples were centrifuged and the collected plasma was stored at −80° C. until analysis. Plasma samples were analyzed for Test Article concentrations using an LC/MS/MS method. Briefly, a 50 p L aliquot of each plasma sample was mixed with 100 μL of acetonitrile that contained an internal standard (IS). The mixture was vortexed and centrifuged. Ten (10) p L of the resulting solution was injected onto a reverse-phase C18 column and the resultant peaks detected on a LC/MS/MS equipped with a turbo ionspray ionization source. Sample concentrations below the limit of quantification (BLQ) were treated as zero for PK calculations. Composite PK parameters were estimated from a maximum of two sampling points per mouse and three mice per sampling point and the sparse data option of WinNonlin was used for noncompartmental analysis of the concentration-time data (Phoenix WinNonLin software, version 64; Pharsight, Mountain View, CA). The elimination rate constant (k) was calculated as the absolute value of the slope of the linear regression of logarithm of the concentration versus time for the last three data points of the concentration-time profiles. Apparent elimination half-life (t½) values were calculated as 1n(2)/k. Area under the concentration-time curve (AUC) values were estimated using linear trapezoidal method. AUC values were calculated from the dosing time to the last measurable concentration. AUC∞ values were calculated as the sum of the corresponding AUC and the ratio of the last detectable concentration divided by k. Plasma clearance (CL) was calculated from Dose/AUC. Mean resident time (MRT) was estimated by moment analysis. Volume of distribution at steady state (Vss) was calculated from MRT∞×CL. Maximum concentration (Cmax) and time to reach Cmax (tmax) were recorded as observed. Bioavailability was calculated dAUC∞,po/dAU∞.iv×100% where dAUC was the dose normalized AUC value. Compounds tested were prepared in accordance with the synthetic procedures described herein.

[2] = Projected single-dose CL and Vss values in humans (allometric scaling); conditions: human, allometric scaling of mouse, rat, dog, cynomolgus monkey IV PK
Protocol: Allometric scaling for the prediction of human Clearance and Volume of Distribution was based on interspecies simple allometric scaling of mouse, rat, dog, and cynomolgus monkey intravenous pharmacokinetic parameters (Boxenbaum, J Pharmacokinet Biopharm 10:201-27, 1982). Prediction of human CL was performed by extrapolating pre-clinical species' plasma intravenous clearance. The ‘rule of exponents’ (Mahmood & Balian, Life Sci. 59:579-85, 1996) was examined in this prediction, where it has been proposed that, when the exponent of simple allometry lies between 0.71 and 0.99, a correction factor based on Maximum Life Span (MLP) of this species can be applied and, when the exponent of simple allometry is greater than 1.0, a correction factor based on Brain Weight (BrW) can be applied, or a protein binding correction can be applied when available. In a similar manner, simple allometric scaling was employed to predict human Volume of Distribution. This method has been used successfully for varied drugs (Ward & Smith, Drug Metab Dispos 32:612-19, 2004; McGinnity et al., Curr Drug Metab 8:463-79, 2007).

[3] = Monkey single dose pharmacokinetics; assay type: in vivo; conditions: male, plasma, iv, Cynomolgus Monkey; for Vd: read-out: Vss
Protocol: Non-naïve Male Cynomolgus Monkey (2-5 years of age, body weight 2-5 kg) used in this study were obtained from Topgene Biotechnology. All animals for IV administration had free access to food and water; all animals for PO were fasted overnight prior to dosing and were fed approximately 6 hours after dosing. The IV dose solution was prepared in 10% DMA/50% PG/40% HPOCD solution (40% w/v aqueous HPOCD) at a concentration of 1.0 mg/mL. The oral dose suspension was prepared by suspending the compound in 0.5% HPMC/0.1% Tween 80 in distilled water at a concentration of 0.2 mg/mL. Concentrations of IV and PO doses were measured at the end of the study. PK parameters were calculated using the nominal dose values if the measured values were within 20% of the nominal values. Blood samples were collected by venipuncture of peripheral veins except the dosing vein at pre-dose, 5 15, 30 min, 1, 2, 4, 6, 8, 24 and 48 h post-dose. Blood samples were centrifuged and resultant plasma was frozen for bioanalysis. Plasma samples were stored at −80° C. before analysis. Plasma samples were analyzed for compound concentrations using the LC/MS/MS method. Briefly, a 50 μL aliquot of each plasma sample was mixed with 100 μL of acetonitrile that contained an internal standard. The mixture was vortexed and centrifuged. Ten (10) p L of the resulting solution was injected onto a reverse-phase C18 column and the resultant peaks detected on a LC/MS/MS equipped with a turbo ionspray ionization source. Sample concentrations below the limit of quantification (BLQ) were treated as zero for PK calculations. PK parameters were estimated from individual animals using noncompartmental analysis of the concentration-time data (Phoenix WinNonLin software, version 64; Pharsight, Mountain View, CA). The elimination rate constant (k) was calculated as the absolute value of the slope of the linear regression of logarithm (log) of the concentration versus time for the last three data points of the concentration-time profiles. Apparent elimination half-life (t½) values were calculated as 1n(2)/k. Area under the concentration-time curve (AUC) values were estimated using linear trapezoidal method. AUC values were calculated from the dosing time to the last measurable concentration. AUC∞ values were calculated as the sum of the corresponding AUC and the ratio of the last detectable concentration divided by k. Plasma clearance (CL) was calculated from Dose/AUC.. Mean resident time extrapolated to infinity (MRT∞) was estimated by moment analysis. Vss was calculated from MRT. X CL. Maximum concentration (Cmax) and time to reach Cmax (tmax) were recorded as observed. As this was a cross-over study, bioavailability was calculated dAUC∞,po/dAUC∞,iv ×100% where dAUC was the dose normalized AUC value from the same animal given IV and PO dose. Compounds tested were prepared in accordance with the synthetic procedures described herein.

Row | clearance [1] [mL/min/kg] | half-life [1] [h] | Vd [1] [L/kg] | Projected t1/2 [2] [h] | clearance [3] [mL/min/kg] | half-life [3] [h] | Vd [3] [L/kg] | Compound
1 | 28.4 | 1.77 | 4.2 | 28.3 | 11.6 | 9.94 | 8.89 | C[C@H]1CC[C@H](N2CC(=O)N(Cc3ccc(F)c(F)c3)C3(CN(C=O)C3)C2=O)CC1 [Compound 1, 5-(3,4-difluorobenzyl)-8-((1r,4r)-4-methylcyclohexyl)-6,9-dioxo-2,5,8-triazaspiro[3.5]nonane-2-carbaldehyde]
2 | 11.6 | 2.8 | 3.28 | 51.7 | 3.4 | 16 | 4.35 | O=CN1CC2(C1)C(=O)N([C@H]1CC[C@H](C(F)F)CC1)CC(=O)N2Cc1ccc(C(F)(F)F)cc1 [Comparator E, 8-((1r,4r)-4-(difluoromethyl)cyclohexyl)-6,9-dioxo-5-(4-(trifluoromethyl)benzyl)-2,5,8-triazaspiro[3.5]nonane-2-carbaldehyde]
3 |  |  |  | 62 | 6.92 | 18.1 | 12.4 | CC(=O)N1CC2(C1)C(=O)N(c1ccc(C#N)cc1F)CC(=O)N2Cc1ccc(C(F)(F)F)cc1 [Comparator D, 4-(2-acetyl-6,9-dioxo-5-(4-(trifluoromethyl)benzyl)-2,5,8-triazaspiro[3.5]nonan-8-yl)-3-fluorobenzonitrile]
4 |  |  |  | 38.7 |  |  |  | O=CN1CC2(C1)C(=O)N(c1ccc(F)cc1F)CC(=O)N2Cc1ccc(Cl)cc1 [Comparator A, 5-(4-chlorobenzyl)-8-(2,4-difluorophenyl)-6,9-dioxo-2,5,8-triazaspiro[3.5]nonane-2-carbaldehyde]
5 | 4.67 | 2.6 | 1.39 | 41 | 13.8 | 11.6 | 12 | O=C1[C@H](C2COC2)N(Cc2ccc(C(F)(F)F)cc2)C(=O)CN1c1ncc(Cl)cc1F [Comparator C, (S)-1-(5-chloro-3-fluoropyridin-2-yl)-3-(oxetan-3-yl)-4-(4-(trifluoromethyl)benzyl)piperazine-2,5-dione, reference compound]

Source: US20240132498A1, “CRYSTALLINE FORMS OF 5-(3,4-DIFLUOROBENZYL)-8-((1R,4R)-4-METHYLCYCLOHEXYL)-6,9-DIOXO-2,5,8-TRIAZASPIRO[3.5]NONANE-2-CARBALDEHYDE” (Cytokinetics, Incorporated, priority 2022, published 2024)
